Test results taken from ChEMBL document CHEMBL5523701, “Structure-based discovery of small molecule inhibitors of FKBP51-Hsp90 protein-protein interaction” (Eur J Med Chem, 2024).
Values belong to the compound of their own block, whether it stands above or below them.

Columns and labels:
[1] = biological target: T1, Peptidyl-prolyl cis-trans isomerase FKBP4 (Homo sapiens, UniProt Q02790); assay: Inhibition of GST-tagged human FKBP52 expressed in Escherichia coli BL21 (DE3) using NH2-EDASRMEEVD-COOH peptide as substrate preincubated for 15 mins followed by substrate addition measured after 15 mins by Alpha Screen assay
T1 sequence (Q02790 whole entry): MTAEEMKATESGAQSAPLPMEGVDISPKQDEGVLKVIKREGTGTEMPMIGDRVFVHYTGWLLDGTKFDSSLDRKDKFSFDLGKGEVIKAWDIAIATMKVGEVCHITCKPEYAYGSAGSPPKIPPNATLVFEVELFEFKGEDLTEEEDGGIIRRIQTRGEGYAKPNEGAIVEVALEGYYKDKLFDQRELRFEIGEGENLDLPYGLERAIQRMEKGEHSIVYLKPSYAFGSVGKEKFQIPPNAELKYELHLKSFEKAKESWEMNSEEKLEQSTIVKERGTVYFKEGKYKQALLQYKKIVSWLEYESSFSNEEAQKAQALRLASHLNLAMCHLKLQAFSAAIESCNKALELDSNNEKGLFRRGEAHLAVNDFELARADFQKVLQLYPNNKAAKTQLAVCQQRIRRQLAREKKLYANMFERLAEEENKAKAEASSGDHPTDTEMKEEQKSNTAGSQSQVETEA

[2] = biological target: T2, Peptidyl-prolyl cis-trans isomerase FKBP5 (Homo sapiens, UniProt Q13451); assay: Inhibition of GST-tagged human FKBP51 expressed in Escherichia coli BL21 (DE3) using NH2-EDASRMEEVD-COOH peptide as substrate preincubated for 15 mins followed by substrate addition measured after 15 mins by Alpha Screen assay
T2 sequence (Q13451 whole entry): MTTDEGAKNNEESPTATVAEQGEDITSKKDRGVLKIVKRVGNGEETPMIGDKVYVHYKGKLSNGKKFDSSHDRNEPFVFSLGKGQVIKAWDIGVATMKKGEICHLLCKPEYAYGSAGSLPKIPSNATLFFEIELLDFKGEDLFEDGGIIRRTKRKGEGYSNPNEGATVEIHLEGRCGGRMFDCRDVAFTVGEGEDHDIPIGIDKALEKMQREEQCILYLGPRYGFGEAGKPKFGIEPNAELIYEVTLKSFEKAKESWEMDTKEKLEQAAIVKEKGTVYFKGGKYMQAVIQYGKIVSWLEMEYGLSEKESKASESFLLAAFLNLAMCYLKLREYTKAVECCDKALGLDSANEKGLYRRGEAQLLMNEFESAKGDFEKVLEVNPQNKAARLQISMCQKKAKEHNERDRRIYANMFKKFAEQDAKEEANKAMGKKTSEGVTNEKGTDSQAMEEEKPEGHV

[3] = biological target: T3, Serine/threonine-protein phosphatase 5 (Homo sapiens, UniProt P53041); assay: Inhibition of GST-tagged human PP5 expressed in Escherichia coli BL21 (DE3) using NH2-EDASRMEEVD-COOH peptide as substrate preincubated for 15 mins followed by substrate addition measured after 15 mins by Alpha Screen assay
T3 sequence (P53041 whole entry): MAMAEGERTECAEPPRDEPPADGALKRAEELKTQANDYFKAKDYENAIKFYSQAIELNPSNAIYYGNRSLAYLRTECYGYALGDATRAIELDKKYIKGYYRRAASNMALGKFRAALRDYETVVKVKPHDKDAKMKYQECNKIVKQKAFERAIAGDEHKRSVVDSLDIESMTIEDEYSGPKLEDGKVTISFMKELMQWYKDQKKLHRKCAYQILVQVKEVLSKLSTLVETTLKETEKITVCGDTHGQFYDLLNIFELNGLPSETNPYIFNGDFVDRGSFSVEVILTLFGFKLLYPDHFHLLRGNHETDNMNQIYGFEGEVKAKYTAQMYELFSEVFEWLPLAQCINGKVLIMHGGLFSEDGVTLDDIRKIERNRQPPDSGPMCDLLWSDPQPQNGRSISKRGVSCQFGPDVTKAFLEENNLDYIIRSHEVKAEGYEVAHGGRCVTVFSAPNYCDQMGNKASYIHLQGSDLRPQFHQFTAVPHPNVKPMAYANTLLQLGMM

[4] = biological target: T4, E3 ubiquitin-protein ligase CHIP (Homo sapiens, UniProt Q9UNE7); assay: Inhibition of GST-tagged human CHIP expressed in Escherichia coli BL21 (DE3) using NH2-EDASRMEEVD-COOH peptide as substrate preincubated for 15 mins followed by substrate addition measured after 15 mins by Alpha Screen assay
T4 sequence (Q9UNE7 whole entry): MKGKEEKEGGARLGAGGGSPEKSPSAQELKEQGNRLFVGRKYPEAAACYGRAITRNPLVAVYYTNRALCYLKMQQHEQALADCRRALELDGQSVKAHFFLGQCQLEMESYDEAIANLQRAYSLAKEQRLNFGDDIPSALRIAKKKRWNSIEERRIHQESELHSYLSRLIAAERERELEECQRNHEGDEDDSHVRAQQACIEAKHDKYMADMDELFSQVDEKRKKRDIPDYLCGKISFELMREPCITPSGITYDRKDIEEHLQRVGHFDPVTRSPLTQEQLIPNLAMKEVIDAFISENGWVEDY

[5] = biological target: Stress-induced-phosphoprotein 1 (Homo sapiens, UniProt P31948); assay: Inhibition of GST-tagged human HOP expressed in Escherichia coli BL21 (DE3) using NH2-EDASRMEEVD-COOH peptide as substrate preincubated for 15 mins followed by substrate addition measured after 15 mins by Alpha Screen assay
Stress-induced-phosphoprotein 1, sequence (P31948 whole entry): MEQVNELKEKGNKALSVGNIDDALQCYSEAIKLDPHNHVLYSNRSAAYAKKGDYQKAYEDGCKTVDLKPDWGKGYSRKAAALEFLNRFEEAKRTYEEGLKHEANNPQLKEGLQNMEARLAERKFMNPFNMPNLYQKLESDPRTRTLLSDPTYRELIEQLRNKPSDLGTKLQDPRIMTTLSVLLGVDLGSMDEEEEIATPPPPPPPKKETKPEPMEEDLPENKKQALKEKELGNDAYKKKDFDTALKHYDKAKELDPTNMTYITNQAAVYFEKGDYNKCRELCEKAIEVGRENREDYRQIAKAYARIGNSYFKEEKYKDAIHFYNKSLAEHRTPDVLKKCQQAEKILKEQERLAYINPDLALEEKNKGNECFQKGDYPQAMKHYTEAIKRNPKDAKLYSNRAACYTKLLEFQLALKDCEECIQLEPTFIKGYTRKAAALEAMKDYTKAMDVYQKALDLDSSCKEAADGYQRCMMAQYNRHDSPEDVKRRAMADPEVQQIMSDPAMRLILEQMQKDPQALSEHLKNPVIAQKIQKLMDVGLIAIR

[6] = biological target: T5, AH receptor-interacting protein (Homo sapiens, UniProt O00170); assay: Inhibition of GST-tagged human AIP expressed in Escherichia coli BL21 (DE3) using NH2-EDASRMEEVD-COOH peptide as substrate preincubated for 15 mins followed by substrate addition measured after 15 mins by Alpha Screen assay
T5 sequence (O00170 whole entry): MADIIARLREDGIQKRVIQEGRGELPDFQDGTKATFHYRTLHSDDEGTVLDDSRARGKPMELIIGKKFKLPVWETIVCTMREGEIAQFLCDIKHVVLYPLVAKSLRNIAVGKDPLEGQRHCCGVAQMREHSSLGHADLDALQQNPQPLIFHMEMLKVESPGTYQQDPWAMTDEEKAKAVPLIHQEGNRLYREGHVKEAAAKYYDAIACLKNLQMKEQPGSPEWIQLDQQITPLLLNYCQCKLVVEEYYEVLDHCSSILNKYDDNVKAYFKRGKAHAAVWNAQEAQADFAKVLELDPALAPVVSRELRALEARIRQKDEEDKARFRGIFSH

[7] = biological target: Small glutamine-rich tetratricopeptide repeat-containing protein alpha (Homo sapiens, UniProt O43765); assay: Inhibition of GST-tagged human SGTA expressed in Escherichia coli BL21 (DE3) using NH2-EDASRMEEVD-COOH peptide as substrate preincubated for 15 mins followed by substrate addition measured after 15 mins by Alpha Screen assay
Small glutamine-rich tetratricopeptide repeat-containing protein alpha, sequence (O43765 whole entry): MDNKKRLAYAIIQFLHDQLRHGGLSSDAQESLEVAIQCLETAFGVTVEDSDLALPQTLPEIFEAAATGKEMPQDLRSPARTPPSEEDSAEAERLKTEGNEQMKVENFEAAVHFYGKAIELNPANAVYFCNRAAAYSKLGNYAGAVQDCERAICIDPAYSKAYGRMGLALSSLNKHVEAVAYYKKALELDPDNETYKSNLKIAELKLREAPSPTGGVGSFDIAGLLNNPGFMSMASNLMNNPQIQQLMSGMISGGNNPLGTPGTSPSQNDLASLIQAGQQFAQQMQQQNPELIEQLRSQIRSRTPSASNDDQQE

[8] = biological target: T6, DnaJ homolog subfamily C member 7 (Homo sapiens, UniProt Q99615); assay: Inhibition of GST-tagged human DNAJC7 expressed in Escherichia coli BL21 (DE3) using NH2-EDASRMEEVD-COOH peptide as substrate preincubated for 15 mins followed by substrate addition measured after 15 mins by Alpha Screen assay
T6 sequence (Q99615 whole entry): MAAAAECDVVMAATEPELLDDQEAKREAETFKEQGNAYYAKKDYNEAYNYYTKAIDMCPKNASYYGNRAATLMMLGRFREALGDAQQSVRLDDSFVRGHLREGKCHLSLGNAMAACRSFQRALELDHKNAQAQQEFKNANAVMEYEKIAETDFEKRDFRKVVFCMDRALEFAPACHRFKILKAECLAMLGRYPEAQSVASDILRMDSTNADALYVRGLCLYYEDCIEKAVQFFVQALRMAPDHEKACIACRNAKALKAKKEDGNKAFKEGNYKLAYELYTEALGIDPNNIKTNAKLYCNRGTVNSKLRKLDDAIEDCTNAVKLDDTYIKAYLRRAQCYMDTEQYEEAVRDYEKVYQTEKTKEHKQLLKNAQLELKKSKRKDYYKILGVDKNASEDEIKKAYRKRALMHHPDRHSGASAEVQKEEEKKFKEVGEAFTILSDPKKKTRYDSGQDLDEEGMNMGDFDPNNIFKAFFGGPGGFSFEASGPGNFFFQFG

[9] = biological target: T7, Mitochondrial import receptor subunit TOM70 (Homo sapiens, UniProt O94826); assay: Inhibition of GST-tagged human TOM70 expressed in Escherichia coli BL21 (DE3) using NH2-EDASRMEEVD-COOH peptide as substrate preincubated for 15 mins followed by substrate addition measured after 15 mins by Alpha Screen assay
T7 sequence (O94826 whole entry): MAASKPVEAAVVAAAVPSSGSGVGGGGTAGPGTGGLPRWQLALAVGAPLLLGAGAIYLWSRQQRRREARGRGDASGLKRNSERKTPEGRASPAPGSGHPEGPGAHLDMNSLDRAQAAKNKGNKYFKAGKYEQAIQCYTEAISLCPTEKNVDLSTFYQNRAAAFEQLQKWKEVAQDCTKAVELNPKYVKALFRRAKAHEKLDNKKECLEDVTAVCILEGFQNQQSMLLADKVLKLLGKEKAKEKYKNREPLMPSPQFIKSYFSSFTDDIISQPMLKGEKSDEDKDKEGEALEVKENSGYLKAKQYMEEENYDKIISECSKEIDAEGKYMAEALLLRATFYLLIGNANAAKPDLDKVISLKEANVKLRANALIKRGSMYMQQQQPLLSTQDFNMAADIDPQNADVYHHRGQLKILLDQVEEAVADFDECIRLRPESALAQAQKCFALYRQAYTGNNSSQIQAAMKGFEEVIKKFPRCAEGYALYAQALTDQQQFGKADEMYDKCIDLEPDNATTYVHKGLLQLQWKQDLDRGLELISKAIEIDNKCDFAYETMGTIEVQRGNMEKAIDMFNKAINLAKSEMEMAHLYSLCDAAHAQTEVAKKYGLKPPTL

[10] = Inhibition of GST-tagged FKBP51 Y355F mutant (unknown origin) using NH2-EDASRMEEVD-COOH peptide as substrate preincubated for 15 mins followed by substrate addition measured after 15 mins by Alpha Screen assay; set-up: species or system Homo sapiens
[11] = Inhibition of GST-tagged FKBP51 N381Y mutant (unknown origin) using NH2-EDASRMEEVD-COOH peptide as substrate preincubated for 15 mins followed by substrate addition measured after 15 mins by Alpha Screen assay; set-up: species or system Homo sapiens
[12] = buffer
Description: Solubility of compound in aqueous solution

Structure (SMILES): CCOC(=O)c1c(NC(=O)CSc2n[nH]c(CNc3ccccc3)n2)sc(C)c1C
IC50 [1]: 8 µM

Structure (SMILES): CCOC(=O)c1c(NC(=O)CSc2nnc(-c3cccc(O)c3)o2)sc(C)c1C
IC50 [1]: 3 µM

Structure (SMILES): CCOC(=O)CC(=O)CSc1nc(C)c2cc(OCC)ccc2n1
IC50 [1]: 9 µM

Structure (SMILES): CCC1CCc2c(sc(NC(=O)CCCC(=O)Nc3sc4c(c3C(N)=O)CCC(CC)C4)c2C(N)=O)C1 (stereo not drawn)
IC50 [3]: 30 nM
IC50 [4]: 1000 nM
IC50 [5]: 10 µM
IC50 [6]: 10 µM
IC50 [7]: 100 nM
IC50 [8]: 1000 nM
IC50 [9]: 1500 nM
IC50 [10]: 40 µM
IC50 [11]: 50 nM
solubility [12]: Insoluble
solubility: Insoluble

Structure (SMILES): CCS(=O)(=O)Nc1ccc(-c2nnc(SCC(=O)c3c(C)c(C)cc(C)c3C)o2)cc1
IC50 [1]: 6 µM

Structure (SMILES): Cc1ccc(NC(=O)c2cc(NC(=O)c3ccccc3)cc(NC(=O)c3ccccc3)c2)cc1C
IC50 [1]: > 100 µM

More lines, now with the values ahead:

IC50 [1]: 3 µM
Structure (SMILES): CCC(=O)Nc1ccc(NC(=O)CSc2nc3cc4c(cc3cc2C)CCC4)cc1

IC50 [2]: 2000 nM
IC50 [1]: 3 µM
Structure (SMILES): CCc1nnc(NC(=O)CSc2nc(-c3ccc(C)cc3)cc(-c3ccc(OC)cc3)c2C#N)o1

IC50 [1]: 6 µM
Structure (SMILES): O=C(CSc1nnc(-c2ccc(S(=O)(=O)N3CCCC3)cc2)o1)Nc1ccc(F)cc1

IC50 [1]: 5 µM
Structure (SMILES): CCOc1ccc2cc(C#N)c(SCC(=O)NCCc3ccccc3)nc2c1

IC50 [1]: 6 µM
Structure (SMILES): CCOc1ccc2cc(C#N)c(SCC(=O)Nc3cccc(F)c3)nc2c1

IC50 [1]: 5 µM
Structure (SMILES): CCC(=O)Nc1ccc(NC(=O)CSc2nc3cc4c(cc3cc2C)CCC4)cc1C
